From BindingDB's records for doi:10.7270/Q2CN72C0 (Burnham Center For Chemical Genomics, 2010)

Target: T1, Nucleotide-binding oligomerization domain-containing protein 1 (Homo sapiens, UniProt Q9Y239)
T1 sequence (Q9Y239 whole entry): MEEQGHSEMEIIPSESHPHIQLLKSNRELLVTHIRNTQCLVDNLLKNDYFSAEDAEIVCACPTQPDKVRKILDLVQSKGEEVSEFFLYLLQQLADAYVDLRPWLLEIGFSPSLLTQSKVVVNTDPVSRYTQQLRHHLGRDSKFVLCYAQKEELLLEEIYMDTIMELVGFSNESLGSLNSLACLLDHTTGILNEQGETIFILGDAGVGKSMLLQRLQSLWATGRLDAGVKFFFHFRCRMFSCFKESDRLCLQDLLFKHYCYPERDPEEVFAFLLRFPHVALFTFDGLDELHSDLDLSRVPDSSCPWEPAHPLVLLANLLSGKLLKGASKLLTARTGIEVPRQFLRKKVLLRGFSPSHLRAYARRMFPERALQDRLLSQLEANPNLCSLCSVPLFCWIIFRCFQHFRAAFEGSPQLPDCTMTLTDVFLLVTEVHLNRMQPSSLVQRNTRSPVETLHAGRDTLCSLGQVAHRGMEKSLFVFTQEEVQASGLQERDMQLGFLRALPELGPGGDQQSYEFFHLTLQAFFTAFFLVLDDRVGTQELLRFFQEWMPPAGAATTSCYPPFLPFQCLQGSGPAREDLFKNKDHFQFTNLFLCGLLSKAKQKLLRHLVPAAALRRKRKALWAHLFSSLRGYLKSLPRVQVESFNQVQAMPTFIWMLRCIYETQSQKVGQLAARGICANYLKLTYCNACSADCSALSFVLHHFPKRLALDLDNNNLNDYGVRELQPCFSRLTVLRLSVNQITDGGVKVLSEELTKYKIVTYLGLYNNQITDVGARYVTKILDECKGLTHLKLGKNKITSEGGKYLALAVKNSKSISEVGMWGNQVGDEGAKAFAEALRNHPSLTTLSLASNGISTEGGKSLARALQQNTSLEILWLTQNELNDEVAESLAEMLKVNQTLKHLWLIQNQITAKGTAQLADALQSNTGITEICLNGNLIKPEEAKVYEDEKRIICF
Assay: NOD1 signaling inhibitors, primary screen, cell-based, luminescence, uHTS (AID 1578)

SMILES | EC50 [µM]
Cc1cc(CN=Nc2ncnc(N)c2[N+](=O)[O-])c(C)n1-c1ccccc1 | 4.14
Cc1cc(SCC(=O)OCC(=O)C(C#N)c2nc3ccccc3[nH]2)c(C)cc1Br (stereo not given) | > 20
O=C1C(=O)N(c2nccs2)C(c2ccccc2)C1C(=O)c1ccc2c(c1)OCCO2 (stereo not given) | 11.5
Oc1cccc(CN=Nc2ccc(Cl)nn2)c1O | > 20
CCCOC1=CC(=O)C(C=NNC(=S)Nc2ccccc2[N+](=O)[O-])C=C1 (stereo not given) [1-(2-nitrophenyl)-3-[[(E)-(6-oxo-4-propoxy-1-cyclohexa-2,4-dienylidene)methyl]amino]thiourea] | 11.9
C=CCN1C(=O)C(=NNC(=S)Nc2cccc(C)c2)c2ccccc21 [1-(3-methylphenyl)-3-[(Z)-(2-oxidanylidene-1-prop-2-enyl-indol-3-ylidene)amino]thiourea] | 1.09
CCCCCCC1=Cc2c/c(=C3/NN=C(c4ccccc4OC)O3)c(=O)oc2=CC1=O [6-Hexyl-7-hydroxy-3-[5-(2-methoxy-phenyl)-[1,3,4]oxadiazol-2-yl]-chromen-2-one] | 6.54
CCCCCCC1=Cc2c/c(=C3/NN/C(=C4/C=CC=CC4=O)O3)c(=O)oc2=CC1=O [(3E)-6-hexyl-3-[(5E)-5-(6-oxocyclohexa-2,4-dien-1-ylidene)-1,3,4-oxadiazolidin-2-ylidene]chromene-2,7-dione] | 4.51
Cc1ccc(O)c(/N=C/C2=CC(Cc3ccccc3)C=C([N+](=O)[O-])C2=O)c1 (stereo not given) [(6E)-6-[[(5-methyl-2-oxidanyl-phenyl)amino]methylidene]-2-nitro-4-(phenylmethyl)cyclohexa-2,4-dien-1-one] | 6.21
Cc1ccc(C)c(SCC(=O)OCC(=O)C(C#N)c2nc3ccccc3[nH]2)c1 (stereo not given) [MLS000392255] | > 20
Cc1cc(CN=Nc2nc(N)ncc2[N+](=O)[O-])c(C)n1-c1ccccc1F [MLS000392273] | 4.64
COc1ccc(NS(=O)(=O)c2ccc(N=NC(C)c3ccncc3)c([N+](=O)[O-])c2)cc1 (stereo not given) [MLS000393523] | 4.33
O=C1C([N+](=O)[O-])=CC(Cl)=CC1CN=Nc1ccccn1 (stereo not given) [MLS000539830] | 9.12
CCOC(=O)c1sc(N2C(=O)C(=O)C(C(=O)c3ccco3)C2c2cccc([N+](=O)[O-])c2)nc1C (stereo not given) [MLS001082998] | > 20
Oc1c(Br)cc(Br)cc1CN=Nc1ccc(Cl)nn1 [MLS001171109] | > 20
C=CCN1C(=O)C(=NNC(=S)Nc2cccc(OC)c2)c2ccccc21 [SMR000132469] | > 20
CCOc1ccc(-c2csc(/C(C#N)=C/C3C=CC(=O)C([N+](=O)[O-])=C3)n2)cc1 (stereo not given) [SMR000237723] | 1.52
CN1C(=O)C(=NNC(=S)Nc2ccccc2F)c2cc(S(=O)(=O)N3CCOCC3)ccc21 [SMR000314843] | > 20
Cc1cc(N=NCc2ccccc2[N+](=O)[O-])nc(-n2nc(C)cc2C)n1 [SMR000426946] | 6.21
COc1cc(CN=Nc2nc3c(c(=O)n(C)c(=O)n3C)n2Cc2ccccc2)ccc1OC(=O)c1ccco1 [[4-[[(7-benzyl-1,3-dimethyl-2,6-dioxopurin-8-yl)hydrazinylidene]methyl]-2-methoxyphenyl] furan-2-carboxylate] | 5.22
